Source: a melting point compilation (Tetko et al.; mined from patent text by program, amines drawn as free bases though some values may be those of a salt)

| SMILES | melting point |
| --- | --- |
| CC(C)C[C@H](NC(=O)OCc1ccccc1)C(=O)N[C@@H](Cc1ccccc1)C(=O)CSc1ccccc1 | 105 to 106 °C |
| COc1ccc2nc(C(=O)O)c(OCc3ccccc3)cc2c1 | 272 to 275 °C |
| Cc1c(C(=O)Nc2ccc(N3CCN(CCO)CC3)c(C#N)c2)cnn1-c1cccc(Cl)c1 | 176 to 177 °C |
| Nc1c2c(nc3ccccc13)CCS2 | 210 to 212 °C |
| CCOC(=O)C(O)=Cc1ccc(S(=O)c2ccc(F)cc2)cn1 (centres undefined) | 148 to 150 °C |
| CS(=O)(=O)c1ccc(-c2[nH]c3ccc(Cl)cc3c2-c2ccc(Cl)cc2)cc1 | 281 to 283 °C |
| Cn1c(=O)c(C#N)c(N2CCN(C(=O)c3cccs3)CC2)c2cccnc21 | 266 °C |
| O=c1ccn2c(c1O)C(c1ccc(Br)cc1)OCC2 (centres undefined) | 200 to 212 °C |
| Oc1ccc2c(c1O)C(=Cc1ccnc3ccccc13)c1ccccc1-2 | 315 °C |
| CC(=O)Nc1ccccc1C#Cc1c(F)c(F)nc(F)c1F | 204 to 205 °C |
| NS(=O)(=O)c1cnc(-c2cn(-c3nc(-c4ccc(C(F)(F)F)cc4)cc(C(F)(F)F)n3)cn2)s1 | 264 °C |
| CC(=O)Oc1c(C)ccc2c1NC(O)C1CCCN1C2=O (centres undefined) | 142 to 145 °C |
| O=C(NC(=O)c1c(Cl)cccc1Cl)Nc1ccc(-c2ccccc2)cn1 | 221 to 231 °C |
| N#Cc1cnc2cnc(F)cc2c1Nc1ccc(Cl)cc1Cl | 206 to 208 °C |
| Cc1c(C(=O)O)cnn1-c1nc(-c2cccc(Cl)c2)cs1 | 258 °C |
| CS(=O)(=O)Oc1ccc(-c2c3ccccc3cc3sc4ccccc4c23)cc1 | 136 to 139 °C |
| Cc1c(NC(=O)CC(C)(C)C)c(C)c(C(C)(C)O)c2c1C(c1ccc(C(C)C)cc1)CO2 (centres undefined) | 133 to 134 °C |
| O=[N+]([O-])c1ccc(OCC(O)CCCl)cc1 (centres undefined) | 60 to 63 °C |
| O=c1occc2ccc(Oc3ccc(Cl)cc3)cc12 | 76.5 to 77 °C |
| CCCCCCCCCCCCCCCCCCS(=O)c1cc2ccccc2c(N=Nc2ccc(OC)cc2)c1O (centres undefined) | 108 to 110 °C |
| COCCOc1ccc2c(=O)c(C#N)c[nH]c2c1 | > 250 °C |
| Cc1cc(N2CCN(C(=O)OC(C)(C)C)CC2)ccc1[N+](=O)[O-] | 145 to 146 °C |
| CNc1cc(Oc2ccc3c(c2)OCCN3C(=O)Nc2cccc(C(F)(F)F)c2)ncn1 | 180 °C |
| CCCNC1CN(C(=O)Nc2ccc(C(F)(F)F)cc2)N=C1c1ccc(OC(F)F)c(C)c1 (centres undefined) | 90 to 92 °C |
| CN(C)c1cc(-c2ccnc(Nc3cccc(Cl)c3)n2)ccn1 | 176 to 178 °C |

| SMILES | melting point |
| --- | --- |
| COc1ccnc(Cc2cnc(NCCSCc3nc[nH]c3C)[nH]c2=O)c1 | 128 to 130 °C |
| Cn1cc(-c2ccccc2)c(=O)c(-c2c(Cl)cccc2Cl)c1 | 223 to 226 °C |
| Cc1ccc(C)c(C(=O)C=Cc2ccccc2C(=O)Cl)c1 | 96 to 98 °C |
| COC(=O)c1ccc(C=Cc2ccc(-c3cc4cc(Cl)ccc4o3)cc2)cc1 | 264 to 266 °C |
| COC(=O)C(Cl)=Cc1cc(-n2ncc(C(F)(F)F)cc2=O)ccc1Cl | 140 to 141 °C |
| O=c1c2c(c3cccnc3n1-c1ccccc1)SCC2 | 277 to 279 °C |
| COC(=O)c1cccc(C2C(C#N)=C(N)Oc3c2ccc2ncccc32)c1 (centres undefined) | 203 to 206 °C |
| COc1ccc(-c2cc(NC(=O)C3(C)Cc4ccccc4C3)n[nH]2)cc1 | 171 to 172 °C |
| CC(C)(C(=O)O)c1cc(C(F)(F)F)cc(C(F)(F)F)c1 | 106 to 107 °C |
| O=S(CCN1C=CC=CC=C1)c1ccccc1 (centres undefined) | 195 °C |
| c1ccc2c(c1)Nc1ccccc1-n1ccnc1-2 | 215 to 217 °C |
| COC(=O)c1cc(Cl)cc(N)c1O | 65 to 67 °C |
| C=CCOC(=O)c1cccc(C)c1OS(=O)(=O)NC(=O)Nc1nc(C)cc(OC)n1 | 127 to 128 °C |
| Cc1nc(N2N=C(c3ccc([N+](=O)[O-])cc3)c3cc4c(cc3CC2C)OCO4)no1 (centres undefined) | 191 to 200 °C |
| CCC1(CCCCCBr)C(=O)Nc2ccccc21 (centres undefined) | 77 to 78 °C |
| O=C(Nc1cccc(SC(F)(F)F)c1)c1ccc2ccccc2c1O | 154 °C |
| COc1cc([N+](=O)[O-])c2ncccc2c1OCc1ccc(Cl)cc1 | 115 to 116 °C |
| CN1C(=O)CC[C@]2(C)c3ccc(-c4ccc5c(c4)C(=O)C(=O)N5)cc3CC[C@@H]12 | > 250 °C |
| C=CCc1c2n(c3ccccc13)C(=O)C(=Cc1ncn(C(c3ccccc3)(c3ccccc3)c3ccccc3)c1C)CC2 | 211 to 214 °C |
| O=[N+]([O-])c1cn2c(n1)OC[C@@H](OCc1csc(-c3ccc(OC(F)(F)F)cc3)n1)C2 | 140 to 141 °C |
| Cc1nc(CCOCCCCCCNCC(O)c2cc(Cl)c(N)c(Cl)c2)cs1 (centres undefined) | 67 to 69 °C |
| COCCc1nc2c(N)nc3ccccc3c2n1CCOCCN(C)C(=O)Nc1ccccc1 | 185 to 186 °C |
| CN1CCCCc2cc(Nc3ncc(Cl)c(Nc4ccccc4NS(C)(=O)=O)n3)ccc21 | 170 to 172 °C |
| CCOC(=O)c1nc2c(C)nn(CC)c2nc1OCCC(C)C | 59 to 61 °C |
| NC(=O)CN1CC[C@@H](O)C1=O | 195 to 196 °C |

| SMILES | melting point |
| --- | --- |
| c1ccc(Sc2ccc3[nH]ccc3c2)cc1 | 97 to 99 °C |
| CCn1ncc2c(NCC3CCCCC3)c3cc(OC)ccc3nc21 | 235 to 237 °C |
| O=C(O)C(CC(=O)N1CCOCC1)Oc1ccccc1 (centres undefined) | 150 to 151 °C |
| O=C(O)COc1ccc(C(=O)c2ccc(Cl)cc2)c(Cl)c1Cl | 196 to 198 °C |
| CCN(CC)CCCCC1CCCCN1CCNC(=O)N1c2ccccc2C(=O)Nc2cccnc21 (centres undefined) | 155 to 157 °C |
| CCOc1cnc2nc(SCc3ccccc3)nn2c1 | 139 to 140 °C |
| CCCC(=O)Nc1n[nH]c2cc(-c3ccc4c(c3)OCO4)ccc12 | 240 °C |
| COC(CN1CCN(c2cccc(-n3cnc4cc(C(C)=O)ccc43)c2)CC1)=NOC(C)C | 120 to 121 °C |
| CC(=O)NC(C(=O)Nc1ccc(C(=O)OCc2ccccc2)cc1)c1ccc2c(c1)C(C)(C)CCC2(C)C (centres undefined) | 258 to 259 °C |
| O=C(CCc1ccccc1)N[C@H](Cc1ccc(C(F)(F)F)cc1)[C@@H](O)c1ccc(F)cc1F (racemic) | 126 to 127 °C |
| Cc1nc2nccc(-c3cccnc3)n2n1 | 244 to 245 °C |
| COC(=O)c1cccc2[nH]ncc12 | 153 to 155 °C |
| CCCCN1C(=O)NC(=Cc2ccc(C(=O)OC)cc2)C1=O | 212 °C |
| COc1ccc(-c2csc3nc(C)c(CCN4CCC(c5noc6cc(F)ccc56)CC4)c(=O)n23)cc1 | 114 to 119 °C |
| C=CCOc1ccc(OC(C(O)C(C)(C)C)n2cncn2)cc1 (centres undefined) | 85 °C |
| COc1ccc(OCCCC2CCN(c3ccc(Cl)nn3)CC2)c(Cl)c1 | 101 °C |
| COc1cc2c(c(OC)c1OC)C[C@@H](N1CCN(C(=O)C=Cc3ccccc3)CC1)[C@@H]2O (relative stereo) | 162 to 163 °C |
| CN1CCC(c2c[nH]c3ccc(NC(=O)c4ccccn4)nc23)CC1 | 221 to 223 °C |
| O=C(Nc1ccc(-n2nc(C(F)(F)F)cc2C2CC2)nc1)c1c(F)cccc1F | 157 to 162 °C |
| N#CCCNC(=O)c1cccc(-c2cccc3nn(Cc4cc(F)cc(Cl)c4)cc23)c1 | 207 to 208 °C |
| Cc1coc(C(=O)c2ccc(F)c(F)c2Nc2ccc(I)cc2F)n1 | 127 °C |
| CSc1nc(-c2ccccn2)n(-c2ccc(C)cc2)c(=O)c1C#N | 247 to 248 °C |
| CNC(=O)c1nc(-c2ccccc2)c(-c2ccc(=O)n(C(C)C)n2)s1 | 165 to 168 °C |
| CCOc1ccc(S(=O)(=O)N(CC(=O)NN=C2C(=O)Nc3ccc([N+](=O)[O-])cc32)c2ccccc2)cc1 | 252 to 253 °C |
| CN(C)C1(c2ccccc2)CCC(CCCNC(=O)NCCc2c[nH]c3ccccc23)CC1 (centres undefined) | 57 °C |

| SMILES | melting point |
| --- | --- |
| Cc1nc2ccc(S(=O)(=O)n3c(CCCC(=O)O)cc4cc(C(F)(F)F)ccc43)cc2o1 | 214 to 220 °C |
| CC(C)(CN)c1ccc2nc(-c3ccc(O)cc3)[nH]c2c1 | 178 to 182 °C |
| CCn1c(=O)c2c(O)cc(=O)oc2c2ccc(Cl)cc21 | 276 to 278 °C |
| CCC1(C)NC(=O)C(C)(CC)N1 (centres undefined) | 58 to 64 °C |
| CCc1ccc(C(=O)N[C@@H]2CCc3cccc(N4CCN(C)CC4)c3C2)cc1 | 177 to 178 °C |
| CS(=O)(=O)c1ccc(-c2cnn(Cc3ccncc3)c(=O)c2-c2ccc(F)cc2)cc1 | 153 to 156 °C |
| CN1CCc2c(cccc2NC(=O)c2ccccc2[N+](=O)[O-])C1 | 196 to 198 °C |
| CCC1C(C)=NN=C(c2ccc(O)c(OC)c2)c2cc(OC)c(OC)cc21 (centres undefined) | 130 to 132 °C |
| CC(=O)CN1CCN(c2cc3c(cc2F)c(=O)c(C(=O)O)c2n3C(C)S2)CC1 (centres undefined) | 215 to 218 °C |
| CCCNC(=O)C(C)=Cc1ccc2[nH]cc(Cc3ccc(C(=O)OC)cc3OC)c2c1 | 55 to 60 °C |
| CCCCc1nc(-c2ccco2)c2ncn(Cc3ccc(OC)cc3)c2n1 | 103 °C |
| Clc1cccnc1-c1ccc2[nH]nc(Nc3cc[nH]n3)c2c1 | 218 to 220 °C |
| COC(=O)C(=O)Nc1ccc(Cl)cc1 | 162 to 164 °C |
| Cc1cccc(NC(N)=S)c1N1CCOCC1 | 178 to 179 °C |
| Cc1cc(Oc2ncc(C(F)(F)F)cc2Cl)nn1C(=O)NCCCl | 98 to 100 °C |
| CCCC(=O)c1c[nH]c2c(OC)cc(OC(=O)c3ccccc3)cc2c1=O | 102 to 104 °C |
| CCOC(=O)c1c[nH]c2cc(C(=O)NCCc3ccc(Cl)cc3)nn2c1=O | > 300 °C |
| COC(=O)c1cccc(/C=C/c2cccc(OC)c2)c1 | 92 to 94 °C |
| COC(=O)c1ccc(N2C(=O)CCC2(CBr)COC(=O)c2ccccc2)c([N+](=O)[O-])c1 (centres undefined) | 183 to 184 °C |
| Cc1nn(-c2ccccc2)c(-c2ccccc2)c1NC(N)=S | 212 to 214 °C |
| COC(=O)Cc1ccc([N+](=O)[O-])cc1 | 45 to 46 °C |
| CCOC(=O)c1cc2cc(C(F)(F)F)ccc2[nH]1 | 134 to 137 °C |
| Cc1cccc(C)c1C#CCOCCn1cnc2c(N)nc3ccccc3c21 | 200 to 201 °C |
| CCN(CC)CCNC(=O)c1c2ccccc2nc2ccc(I)cc12 | 83 to 85 °C |
